Test results reported in a melting point compilation (Tetko et al.; mined from patent text by program, amines drawn as free bases though some values may be those of a salt).

| Structure (SMILES) | melting point |
| --- | --- |
| CC[C@@H](C=O)NC(=O)OC(C)(C)C | 39 to 43 °C |
| O=C(O)c1cccc2c(-c3ccccc3)coc12 | 220 to 222 °C |
| C#CCOC(=O)c1cc(Cl)c(OCC#C)c(OCC#C)c1 | 98 to 99 °C |
| Cc1cn(N)c2ccc(OCc3ccccc3)cc12 | 104 to 106 °C |
| O=C(CCc1ccc(OCCS(=O)(=O)CCOC(c2ccc(Cl)cc2)c2ccc(Cl)cc2)cc1)C(F)(F)F | 98 to 100 °C |
| CC(=O)CSc1c([N+](=O)[O-])ccc(F)c1Cl | 91 to 92 °C |
| CC(C)OC(=O)C(C(=O)O)c1ccccc1 (centres undefined) | 64 to 66 °C |
| O=C(O)c1ccc2c(c1)Sc1ccc(Cl)cc1C2 | 294 to 295 °C |
| FC(F)(F)c1ccc(-c2cc(C(F)(F)F)n3ncc(-c4ccncc4)c3n2)cc1C(F)(F)F | 209 °C |
| COc1cc(C(C)C)c2c(c1)S(=O)(=O)N(COc1cc(C(=O)O)nn1-c1ccccc1)C2=O | 193 to 194 °C |
| Cc1ccc(OC(Cc2ccc(OCCNC(=O)c3ccc(-c4ccccn4)cc3)cc2)C(=O)O)cc1 (centres undefined) | 129 to 131 °C |
| Oc1cc(O)cc(Oc2nnn[nH]2)c1 | 191 to 193 °C |
| COC1=C(OC)C(=O)C2=C(CCC(CCOc3ccc(CO)cc3)CC2)C1=O | 57 to 59 °C |
| O=c1c2c(c1=O)Nc1cc(Cl)c(Cl)cc1N2 | > 360 °C |
| COC(=O)C(Oc1ccccc1)c1ccc(I)cc1 (centres undefined) | 68 to 71 °C |
| CCc1nc2c(C(F)(F)F)cccc2c(O)c1C(=O)O | 174 °C |
| C/C(=C\c1ccc(Cc2cccnc2)cc1)C(=O)Oc1ccccc1 | 52 to 53 °C |
| Cc1cc(C(=O)O)nn1CC(=O)Nc1ccccc1 | 273 to 275 °C |
| Cc1cc(C(N)=O)c2c(c1)C(C(Cl)(Cl)Cl)OC(C(Cl)(Cl)Cl)O2 (centres undefined) | 281 to 283 °C |
| COc1ccc(N2CCN(c3c(C)c(C)c4c(c3C)C(CN3CCCCC3)C(C)(C)O4)CC2)cc1 (centres undefined) | 144 to 145 °C |
| Cn1nc(-c2c(F)cccc2Cl)nc1-c1ccc(Cc2ccc(Cl)c(Cl)c2)c(Cl)c1 | 179 to 185 °C |
| Cc1cc(-c2cnn3c(C(F)(F)F)cc(-c4ccc(C(F)(F)F)c(F)c4)nc23)ccn1 | 250 °C |
| O=C(OCP(=O)(C1CCCCC1)C1CCCCC1)c1ccc(C(=O)OCP(=O)(C2CCCCC2)C2CCCCC2)cc1 | 226 to 228 °C |
| O=P(O)(O)OC(Cn1cncn1)C(c1ccc(F)cc1F)n1cncn1 (centres undefined) | 93 °C |
| CC1(C)OC(=O)C(c2ccc(-c3cscn3)cc2)=C1c1ccc(S(C)(=O)=O)cc1 | 216 °C |

| Structure (SMILES) | melting point |
| --- | --- |
| COCc1ccc(Oc2cc(OC(C)C)c3[nH]c(C4=NCC(CC(=O)NC5CC5)S4)cc3c2)cn1 (centres undefined) | 100 to 101 °C |
| CC(C)=CCC(C(=O)O)C(=O)N(Nc1ccccc1)c1ccccc1 (centres undefined) | 166 °C |
| Cc1cc(-n2cncn2)c2c(Cl)ccc(C)c2n1 | 117 to 118 °C |
| CC1(C)N=C(S)N=C(N)N1 | 186 to 188 °C |
| CC(=O)OCc1c(C(=O)C(=O)O)c2cc(-c3ccc(OC(F)(F)F)cc3)ccc2n1Cc1ccccc1 | 85 to 86 °C |
| CN1CCN(c2ccccc2C=C2CCCN(c3ccc(Cl)cc3)C2=O)CC1 | 177 to 178 °C |
| Cc1c(F)c(Cl)cc2c1c(=O)c(C(=O)O)cn2C1CC1 | 258 to 260 °C |
| CCCCCS(=O)(=O)NC(=O)OCc1ccc(OCCOC)cc1Oc1ncc(C(F)(F)F)cc1Cl | 130 to 132 °C |
| CNC(=O)c1cccc(Nc2ncnc3[nH]cc(C(=O)c4ccccc4C)c23)c1 | > 300 °C |
| CCOC(=O)c1cc2c(s1)CC(C)(C)C2=O | 41 to 42 °C |
| CC(C)c1cc(C(=O)Nc2ccc(C(=O)O)c(Cl)c2)oc1C(C)C | 152 to 153 °C |
| CCc1c(C(=O)NCCCCCCC(=NOCCN)c2ccc(C(F)(F)F)cc2)nc(-c2ccccc2Cl)n1-c1ccc(Cl)cc1 | 90 to 95 °C |
| Cc1ccc2nc3ccc(=O)c(Cl)c-3sc2c1 | 218 °C |
| CON(c1ccc([N+](=O)[O-])cc1Cl)S(=O)(=O)c1ccc(Cl)c([N+](=O)[O-])c1 | 138 to 139 °C |
| Clc1ncc(-c2ccccc2)o1 | 34 °C |
| COc1ccc(C(=O)CC(c2cccs2)C(C)(C)[N+](=O)[O-])cc1 (centres undefined) | 90 °C |
| C=CCN(CC=C)CCCCC(=O)c1ccc2c(c1)Cc1cc(C(=O)CCCCN(CC=C)CC=C)ccc1O2 | 54 to 55 °C |
| Cc1oc(-c2ccc(C(F)(F)F)cc2)nc1-c1ccc(Br)cc1 | 82.8 °C |
| CC(=O)OCC1CCn2c(c(C3=C(c4cccc(C(F)(F)F)c4)C(=O)OC3=O)c3ccccc32)C1 (centres undefined) | 176 to 177 °C |
| NCC(=O)NCCCCNc1cccc2c1C(=O)c1ccccc1C2=O | 206 °C |
| N#CC(Cl)Cc1ccc([N+](=O)[O-])cc1 (centres undefined) | 112 °C |
| Cc1ccnc(NC(=O)c2nc3ccccc3[nH]2)c1 | 262 °C |
| C=CCOc1ccc2ccc(O)cc2c1 | 78 to 80 °C |
| COc1c(C)c(C)c(OC)c(C(O)(c2ccc(C(C)C)cc2)C2CCN(Cc3ccccc3)CC2)c1C (centres undefined) | 105 to 108 °C |
